The target of assay [1] is T1, human muscle fructose-1,6-bisphosphatase (hmFru-1,6-Pase) (Homo sapiens, UniProt O00757).
T1 construct: gene FBP2
T1 sequence (O00757 1-339): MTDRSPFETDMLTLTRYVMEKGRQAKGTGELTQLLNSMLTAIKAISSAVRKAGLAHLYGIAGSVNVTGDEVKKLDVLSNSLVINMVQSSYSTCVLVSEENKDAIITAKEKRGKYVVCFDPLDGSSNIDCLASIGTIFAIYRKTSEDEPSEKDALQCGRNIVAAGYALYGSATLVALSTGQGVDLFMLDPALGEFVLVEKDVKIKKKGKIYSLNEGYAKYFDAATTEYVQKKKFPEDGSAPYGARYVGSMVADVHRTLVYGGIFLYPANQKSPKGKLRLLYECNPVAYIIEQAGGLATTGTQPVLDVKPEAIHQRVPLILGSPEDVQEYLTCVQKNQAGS
The assay is described as follows: coupled enzyme assay (G6PDH/phosphoglucose isomerase, NADP, […] nm), AMP titration. The format is biochemical. Conditions: read-out: Wild-type Fru-1,6-Pase.

Assay [2] concerns the target T2, human muscle fructose-1,6-bisphosphatase (hmFru-1,6-Pase) (Homo sapiens, UniProt O00757, Q33R).
T2 construct: gene FBP2; model includes residues 11–54 and 72–335
T2 sequence (O00757 2-339 Q33R): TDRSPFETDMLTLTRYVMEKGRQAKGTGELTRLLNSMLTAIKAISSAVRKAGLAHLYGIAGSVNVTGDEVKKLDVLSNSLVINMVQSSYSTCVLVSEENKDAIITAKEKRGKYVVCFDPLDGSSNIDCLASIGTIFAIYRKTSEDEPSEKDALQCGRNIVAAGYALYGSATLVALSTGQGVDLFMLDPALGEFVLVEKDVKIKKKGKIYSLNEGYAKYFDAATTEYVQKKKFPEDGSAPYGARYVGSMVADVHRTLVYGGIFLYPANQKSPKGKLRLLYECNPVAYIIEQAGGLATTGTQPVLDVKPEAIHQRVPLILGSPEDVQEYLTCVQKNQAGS
The assay is described as follows: also coupled enzyme inhibition assay (I0.[…]). The format is biochemical.

For `Nc1ncnc2c1ncn2[C@@H]1O[C@H](COP(=O)(O)O)[C@@H](O)[C@H]1O` [AMP], the results for the IC50 in assay [1] and in assay [2] were 190 nM and 3650 nM, respectively.

Source of the values: PMC3785478, “Crystal Structures of Human Muscle Fructose-1,6-Bisphosphatase: Novel Quaternary States, Enhanced AMP Affinity, and Allosteric Signal Transmission Pathway” (PLoS ONE, 2013).
